# Experimental data reported in ChEMBL document CHEMBL5352387, “Synthesis and biological evaluation of tyrosine derivatives as peripheral 5HT2A receptor antagonists for nonalcoholic fatty liver disease” (Eur J Med Chem, 2022).
# pIC50: −log10 of the molar value. The source made the active and inactive calls. The rule behind the calls is not given here.
# Experiments:
# [1] = molecular target: T1, 5-hydroxytryptamine receptor 2A (Homo sapiens, UniProt P28223); assay: Inhibition of 5HT2A receptor (unknown origin) expressed in HEK293 cells at 1 uM by FLIPR Calcium 6 dye based assay relative to control; type: functional, cell-based
# [2] = Drug concentration in plasma of ICR mouse at 5 mg/kg, iv measured at 1 hr; type: ADME, organism-based
# [3] = Drug concentration in brain of ICR mouse at 5 mg/kg, iv measured at 1 hr; type: ADME, organism-based; conditions: read-out: Ct
# [4] = molecular target: T1, 5-hydroxytryptamine receptor 2A; assay: Inhibition of 5HT2A receptor (unknown origin) expressed in HEK293 cells by FLIPR Calcium 6 dye based assay; type: functional, cell-based
# [5] = Stability in mouse liver microsomes assessed as parent compound remaining measured after 30 mins; type: ADME, Microsome; conditions: read-out: Stability
# [6] = Stability in rat liver microsomes assessed as parent compound remaining measured after 30 mins; type: ADME, Microsome; conditions: read-out: Stability
# [7] = Stability in human liver microsomes assessed as parent compound remaining measured after 30 mins; type: ADME, Microsome; conditions: read-out: Stability
# Cytochrome P450 1A2 = molecular target: T2, Cytochrome P450 1A2 (Homo sapiens, UniProt P05177); assay: Inhibition of CYP1A2 (unknown origin) relative to control; type: ADME
# T2 sequence (P05177 whole entry): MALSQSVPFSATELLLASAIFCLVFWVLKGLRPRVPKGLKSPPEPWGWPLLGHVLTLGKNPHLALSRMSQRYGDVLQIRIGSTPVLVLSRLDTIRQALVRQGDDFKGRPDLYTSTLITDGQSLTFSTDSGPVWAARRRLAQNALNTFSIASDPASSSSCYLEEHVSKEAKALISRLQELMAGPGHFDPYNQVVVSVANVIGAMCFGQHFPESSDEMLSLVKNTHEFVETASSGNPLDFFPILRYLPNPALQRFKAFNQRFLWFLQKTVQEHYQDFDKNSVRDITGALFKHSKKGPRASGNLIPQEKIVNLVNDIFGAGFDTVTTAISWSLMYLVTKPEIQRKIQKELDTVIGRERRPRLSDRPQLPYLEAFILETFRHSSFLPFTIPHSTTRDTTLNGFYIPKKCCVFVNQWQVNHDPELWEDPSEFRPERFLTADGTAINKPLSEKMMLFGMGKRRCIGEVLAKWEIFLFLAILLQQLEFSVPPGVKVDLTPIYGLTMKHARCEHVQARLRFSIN
# Cytochrome P450 2C9 = Cytochrome P450 2C9 (Homo sapiens, UniProt P11712); assay: Inhibition of CYP2C9 (unknown origin) relative to control; type: ADME
# Cytochrome P450 2C19 = Cytochrome P450 2C19 (Homo sapiens, UniProt P33261); assay: Inhibition of CYP2C19 (unknown origin) relative to control; type: ADME
# Cytochrome P450 2D6 = Cytochrome P450 2D6 (Homo sapiens, UniProt P10635); assay: Inhibition of CYP2D6 (unknown origin) relative to control; type: ADME
# Cytochrome P450 3A4 = Cytochrome P450 3A4 (Homo sapiens, UniProt P08684); assay: Inhibition of CYP3A4 (unknown origin) relative to control; type: ADME
# hERG = hERG (Homo sapiens, UniProt Q12809); assay: Inhibition of hERG at 10 uM relative to control; type: toxicity
# [8] = molecular target: T3, 5-hydroxytryptamine receptor 1A (Homo sapiens) (UniProt P08908); assay: Inhibition of 5HT1A receptor (unknown origin) at 1 uM relative to control
# T3 sequence (whole entry): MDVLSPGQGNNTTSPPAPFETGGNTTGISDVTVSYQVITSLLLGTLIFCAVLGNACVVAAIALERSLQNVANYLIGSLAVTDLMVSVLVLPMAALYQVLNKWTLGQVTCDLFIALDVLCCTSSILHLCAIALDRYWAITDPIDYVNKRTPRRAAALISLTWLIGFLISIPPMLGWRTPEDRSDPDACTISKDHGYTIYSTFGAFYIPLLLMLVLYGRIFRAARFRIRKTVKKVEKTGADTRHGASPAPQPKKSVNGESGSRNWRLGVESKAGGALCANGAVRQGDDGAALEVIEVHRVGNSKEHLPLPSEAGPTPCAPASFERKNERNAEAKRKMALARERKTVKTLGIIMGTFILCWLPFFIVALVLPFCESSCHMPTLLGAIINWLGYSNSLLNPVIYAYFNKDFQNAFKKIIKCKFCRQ
# [9] = molecular target: T4, 5-hydroxytryptamine receptor 2C (Homo sapiens) (UniProt P28335); assay: Inhibition of 5HT2C receptor (unknown origin) at 1 uM relative to control
# T4 sequence (whole entry): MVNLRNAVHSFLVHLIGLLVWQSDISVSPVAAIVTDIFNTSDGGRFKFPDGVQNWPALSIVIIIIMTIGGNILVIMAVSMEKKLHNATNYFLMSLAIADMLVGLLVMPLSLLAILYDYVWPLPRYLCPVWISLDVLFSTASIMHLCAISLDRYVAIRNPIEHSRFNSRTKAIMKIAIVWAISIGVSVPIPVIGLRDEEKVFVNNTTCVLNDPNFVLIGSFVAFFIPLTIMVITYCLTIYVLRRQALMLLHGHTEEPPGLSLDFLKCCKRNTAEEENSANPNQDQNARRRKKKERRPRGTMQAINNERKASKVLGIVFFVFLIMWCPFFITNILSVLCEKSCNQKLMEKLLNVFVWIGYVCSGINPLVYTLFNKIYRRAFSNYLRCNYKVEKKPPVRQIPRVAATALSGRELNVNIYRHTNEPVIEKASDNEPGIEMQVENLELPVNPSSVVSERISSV
# [10] = molecular target: Serotonin 3 (5-HT3) receptor (Homo sapiens) (UniProt P46098+A5X5Y0+O95264+Q70Z44+Q8WXA8); assay: Inhibition of 5HT3 receptor (unknown origin) at 1 uM relative to control; type: protein-complex assay
# [11] = molecular target: 5-hydroxytryptamine receptor 4 (Homo sapiens) (UniProt Q13639); assay: Inhibition of 5HT4E receptor (unknown origin) at 1 uM relative to control
# [12] = molecular target: 5-hydroxytryptamine receptor 5A (Homo sapiens) (UniProt P47898); assay: Inhibition of 5HT5A receptor (unknown origin) at 1 uM relative to control
# [13] = molecular target: 5-hydroxytryptamine receptor 6 (Homo sapiens) (UniProt P50406); assay: Inhibition of 5HT6 receptor (unknown origin) at 1 uM relative to control
# [14] = molecular target: 5-hydroxytryptamine receptor 7 (Homo sapiens) (UniProt P34969); assay: Inhibition of 5HT7 receptor (unknown origin) at 1 uM relative to control
# Mus musculus [15] = assay: Reduction in hepatic steatosis in high fat diet-induced NAFLD C57BL6/J mouse model at 1 mg/kg, ip measured after 8 weeks; type: functional, organism-based
# Mus musculus [16] = assay: Reduction in hepatic steatosis in high fat diet-induced NAFLD C57BL6/J mouse model assessed as reduction in lobular inflammation at 1 mg/kg, ip measured after 8 weeks by H and E staining analysis; type: functional, organism-based
# Mus musculus [17] = assay: Reduction in hepatic steatosis in high fat diet-induced NAFLD C57BL6/J mouse model assessed as reduction in hepatic triglyceride level at 1 mg/kg, ip measured after 8 weeks by colorimetric assay; type: functional, organism-based
# Mus musculus [18] = assay: Reduction in hepatic steatosis in high fat diet-induced NAFLD C57BL6/J mouse model assessed as reduction in serum ALT level at 1 mg/kg, ip measured after 8 weeks; type: functional, organism-based
# Mus musculus [19] = assay: Reduction in hepatic steatosis in high fat diet-induced NAFLD C57BL6/J mouse model assessed as reduction in serum AST level at 1 mg/kg, ip measured after 8 weeks; type: functional, organism-based
# Mus musculus [20] = assay: Reduction in hepatic steatosis in high fat diet-induced NAFLD C57BL6/J mouse model assessed as reduction in serum cholesterol level at 1 mg/kg, ip measured after 8 weeks; type: functional, organism-based
# Mus musculus [21] = assay: Reduction in hepatic steatosis in high fat diet-induced NAFLD C57BL6/J mouse model assessed as body weight gain at 1 mg/kg, ip measured after 8 weeks; type: functional, organism-based
# Mus musculus [22] = assay: Reduction in hepatic steatosis in high fat diet-induced NAFLD C57BL6/J mouse model assessed as reduction in fat body mass at 1 mg/kg, ip measured after 8 weeks; type: functional, organism-based
# Mus musculus [23] = assay: Reduction in hepatic steatosis in high fat diet-induced NAFLD C57BL6/J mouse model assessed as increase in lean body mass at 1 mg/kg, ip measured after 8 weeks; type: functional, organism-based
# Mus musculus [24] = assay: Reduction in hepatic steatosis in high fat diet-induced NAFLD C57BL6/J mouse model assessed as improved glucose tolerance at 1 mg/kg, ip measured after 8 weeks by glucometer analysis; type: functional, organism-based
# Mus musculus [25] = assay: Reduction in hepatic steatosis in high fat diet-induced NAFLD C57BL6/J mouse model assessed as reduction in adipose tissue inflammation at 1 mg/kg, ip measured after 8 weeks by H and E staining based analysis; type: functional, organism-based
# Mus musculus [26] = assay: Reduction in hepatic steatosis in high fat diet-induced NAFLD C57BL6/J mouse model assessed as decrease in size of adipocytes in epididymis white adipose tissue at 1 mg/kg, ip measured after 8 weeks by H and E staining based analysis; type: functional, organism-based
# Mus musculus [27] = assay: Reduction in hepatic steatosis in high fat diet-induced NAFLD C57BL6/J mouse model assessed as decrease in size of adipocytes in inguinal white adipose tissue at 1 mg/kg, ip measured after 8 weeks by H and E staining based analysis; type: functional, organism-based
# Mus musculus [28] = assay: Reduction in hepatic steatosis in high fat diet-induced NAFLD C57BL6/J mouse model assessed as decrease in size of lipid droplet in brown adipose tissue at 1 mg/kg, ip measured after 8 weeks by H and E staining based analysis; type: functional, organism-based
# Mus musculus [29] = assay: Reduction in hepatic steatosis in high fat diet-induced NAFLD C57BL6/J mouse model assessed as increase in multilocular adipocytes at 1 mg/kg, ip measured after 8 weeks by H and E staining based analysis; type: functional, organism-based
# T1 sequence (P28223 whole entry): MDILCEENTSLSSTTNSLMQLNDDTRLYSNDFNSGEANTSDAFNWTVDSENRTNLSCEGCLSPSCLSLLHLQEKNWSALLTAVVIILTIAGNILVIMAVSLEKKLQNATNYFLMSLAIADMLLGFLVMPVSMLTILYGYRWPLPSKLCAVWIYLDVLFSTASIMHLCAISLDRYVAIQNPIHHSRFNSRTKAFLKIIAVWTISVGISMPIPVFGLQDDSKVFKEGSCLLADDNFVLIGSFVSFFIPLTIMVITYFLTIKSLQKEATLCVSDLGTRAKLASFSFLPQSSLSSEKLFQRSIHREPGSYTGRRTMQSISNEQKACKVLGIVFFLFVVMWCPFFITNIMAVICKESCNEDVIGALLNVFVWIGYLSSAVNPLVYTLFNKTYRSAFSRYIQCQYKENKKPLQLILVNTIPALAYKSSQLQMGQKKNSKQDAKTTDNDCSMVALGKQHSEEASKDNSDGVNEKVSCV
# 5-hydroxytryptamine receptor 5A (Homo sapiens), sequence (P47898 whole entry): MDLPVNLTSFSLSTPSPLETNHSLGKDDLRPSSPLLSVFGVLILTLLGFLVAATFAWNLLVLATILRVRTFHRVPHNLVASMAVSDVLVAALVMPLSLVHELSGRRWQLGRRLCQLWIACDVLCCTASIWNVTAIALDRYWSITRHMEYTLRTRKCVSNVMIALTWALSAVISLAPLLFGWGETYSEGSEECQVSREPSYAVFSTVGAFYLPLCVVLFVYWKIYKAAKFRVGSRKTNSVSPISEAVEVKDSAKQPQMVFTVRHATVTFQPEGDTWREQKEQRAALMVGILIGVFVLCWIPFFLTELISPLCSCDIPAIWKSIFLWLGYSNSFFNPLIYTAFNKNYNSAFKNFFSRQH
# hERG, sequence (Q12809 whole entry): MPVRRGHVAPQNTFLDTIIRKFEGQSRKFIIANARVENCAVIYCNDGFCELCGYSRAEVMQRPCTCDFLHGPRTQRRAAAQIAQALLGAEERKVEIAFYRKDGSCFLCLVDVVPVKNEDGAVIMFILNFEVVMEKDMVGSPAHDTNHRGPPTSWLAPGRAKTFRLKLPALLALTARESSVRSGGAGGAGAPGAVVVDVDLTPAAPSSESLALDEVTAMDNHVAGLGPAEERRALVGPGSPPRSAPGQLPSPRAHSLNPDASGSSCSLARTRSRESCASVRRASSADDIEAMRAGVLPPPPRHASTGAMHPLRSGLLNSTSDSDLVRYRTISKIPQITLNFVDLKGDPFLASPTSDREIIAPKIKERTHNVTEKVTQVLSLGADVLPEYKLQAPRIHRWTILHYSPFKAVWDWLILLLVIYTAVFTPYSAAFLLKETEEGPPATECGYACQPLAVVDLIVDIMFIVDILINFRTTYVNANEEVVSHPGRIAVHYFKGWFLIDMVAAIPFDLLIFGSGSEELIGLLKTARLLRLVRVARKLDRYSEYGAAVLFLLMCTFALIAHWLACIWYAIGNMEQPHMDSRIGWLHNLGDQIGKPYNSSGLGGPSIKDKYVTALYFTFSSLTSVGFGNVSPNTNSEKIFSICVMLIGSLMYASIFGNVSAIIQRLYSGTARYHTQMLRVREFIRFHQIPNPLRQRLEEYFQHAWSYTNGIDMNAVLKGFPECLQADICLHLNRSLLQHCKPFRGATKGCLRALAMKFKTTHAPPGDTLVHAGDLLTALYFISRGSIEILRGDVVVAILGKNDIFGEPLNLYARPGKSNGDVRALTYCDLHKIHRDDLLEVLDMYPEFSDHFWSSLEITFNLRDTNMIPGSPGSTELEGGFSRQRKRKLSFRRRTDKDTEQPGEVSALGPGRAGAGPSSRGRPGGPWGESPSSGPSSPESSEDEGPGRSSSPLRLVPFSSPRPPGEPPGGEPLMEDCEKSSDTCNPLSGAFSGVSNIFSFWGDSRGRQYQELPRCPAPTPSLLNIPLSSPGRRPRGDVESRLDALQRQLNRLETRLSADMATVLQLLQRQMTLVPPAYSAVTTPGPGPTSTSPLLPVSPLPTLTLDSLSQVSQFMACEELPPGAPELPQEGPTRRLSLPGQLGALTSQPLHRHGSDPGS
# Cytochrome P450 3A4, sequence (P08684 whole entry): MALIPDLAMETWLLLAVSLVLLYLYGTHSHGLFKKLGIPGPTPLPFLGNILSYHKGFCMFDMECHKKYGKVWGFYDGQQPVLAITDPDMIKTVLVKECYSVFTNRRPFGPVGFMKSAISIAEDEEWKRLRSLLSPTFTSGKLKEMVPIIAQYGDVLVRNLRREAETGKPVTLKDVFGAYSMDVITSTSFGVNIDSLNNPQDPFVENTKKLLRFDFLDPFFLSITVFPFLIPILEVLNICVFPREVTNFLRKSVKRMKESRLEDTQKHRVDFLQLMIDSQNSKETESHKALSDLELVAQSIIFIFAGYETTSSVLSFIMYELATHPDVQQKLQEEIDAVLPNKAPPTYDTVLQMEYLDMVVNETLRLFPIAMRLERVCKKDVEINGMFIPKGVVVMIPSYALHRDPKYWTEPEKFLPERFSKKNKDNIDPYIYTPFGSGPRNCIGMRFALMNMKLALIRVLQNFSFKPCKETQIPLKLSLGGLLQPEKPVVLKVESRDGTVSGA
# Cytochrome P450 2C19, sequence (P33261 whole entry): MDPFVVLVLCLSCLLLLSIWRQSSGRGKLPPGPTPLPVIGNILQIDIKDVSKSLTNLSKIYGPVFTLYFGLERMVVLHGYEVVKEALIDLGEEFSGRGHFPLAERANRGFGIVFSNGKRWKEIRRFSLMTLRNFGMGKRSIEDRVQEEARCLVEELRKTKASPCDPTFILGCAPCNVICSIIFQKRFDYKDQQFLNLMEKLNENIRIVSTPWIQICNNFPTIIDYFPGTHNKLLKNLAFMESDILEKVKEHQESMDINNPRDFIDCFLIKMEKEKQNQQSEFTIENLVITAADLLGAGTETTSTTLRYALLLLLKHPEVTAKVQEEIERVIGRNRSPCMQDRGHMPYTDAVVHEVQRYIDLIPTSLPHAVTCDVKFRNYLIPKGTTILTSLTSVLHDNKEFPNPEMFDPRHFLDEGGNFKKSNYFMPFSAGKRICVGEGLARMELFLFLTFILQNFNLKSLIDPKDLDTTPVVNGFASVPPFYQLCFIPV
# 5-hydroxytryptamine receptor 4 (Homo sapiens), sequence (Q13639 whole entry): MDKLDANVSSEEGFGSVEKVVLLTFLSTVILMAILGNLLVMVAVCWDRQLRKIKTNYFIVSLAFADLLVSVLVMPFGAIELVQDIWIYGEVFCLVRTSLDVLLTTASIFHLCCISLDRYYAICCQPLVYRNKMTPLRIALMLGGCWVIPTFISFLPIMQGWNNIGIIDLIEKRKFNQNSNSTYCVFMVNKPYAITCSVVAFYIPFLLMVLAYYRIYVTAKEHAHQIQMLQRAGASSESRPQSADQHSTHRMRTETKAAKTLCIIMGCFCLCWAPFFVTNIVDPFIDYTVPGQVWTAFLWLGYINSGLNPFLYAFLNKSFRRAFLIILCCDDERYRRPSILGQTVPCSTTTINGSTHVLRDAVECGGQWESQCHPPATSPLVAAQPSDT
# 5-hydroxytryptamine receptor 6 (Homo sapiens), sequence (P50406 whole entry): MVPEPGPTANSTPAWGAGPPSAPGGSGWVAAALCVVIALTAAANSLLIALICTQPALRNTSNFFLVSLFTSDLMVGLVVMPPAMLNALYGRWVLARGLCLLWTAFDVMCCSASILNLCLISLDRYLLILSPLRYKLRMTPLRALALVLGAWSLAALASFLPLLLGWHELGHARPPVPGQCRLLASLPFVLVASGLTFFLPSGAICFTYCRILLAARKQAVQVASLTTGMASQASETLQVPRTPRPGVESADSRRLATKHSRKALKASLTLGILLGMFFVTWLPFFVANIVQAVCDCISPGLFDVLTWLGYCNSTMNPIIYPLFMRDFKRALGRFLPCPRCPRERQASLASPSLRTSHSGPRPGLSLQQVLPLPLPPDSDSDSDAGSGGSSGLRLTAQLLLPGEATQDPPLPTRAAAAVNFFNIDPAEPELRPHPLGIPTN
# Cytochrome P450 2D6, sequence (P10635 whole entry): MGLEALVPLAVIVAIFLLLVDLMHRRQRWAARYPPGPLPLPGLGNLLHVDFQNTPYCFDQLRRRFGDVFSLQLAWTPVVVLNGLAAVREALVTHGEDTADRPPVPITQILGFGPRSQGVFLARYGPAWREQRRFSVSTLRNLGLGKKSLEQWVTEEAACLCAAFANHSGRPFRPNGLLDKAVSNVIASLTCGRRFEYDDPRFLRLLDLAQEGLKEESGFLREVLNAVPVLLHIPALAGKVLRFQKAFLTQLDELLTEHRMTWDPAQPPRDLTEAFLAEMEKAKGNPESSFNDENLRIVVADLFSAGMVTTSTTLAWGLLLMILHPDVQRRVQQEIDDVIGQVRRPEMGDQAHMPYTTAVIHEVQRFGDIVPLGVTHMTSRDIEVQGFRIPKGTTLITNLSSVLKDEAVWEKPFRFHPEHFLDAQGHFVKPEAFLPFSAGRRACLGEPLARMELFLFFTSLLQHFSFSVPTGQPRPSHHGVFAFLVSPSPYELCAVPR
# 5-hydroxytryptamine receptor 7 (Homo sapiens), sequence (P34969 whole entry): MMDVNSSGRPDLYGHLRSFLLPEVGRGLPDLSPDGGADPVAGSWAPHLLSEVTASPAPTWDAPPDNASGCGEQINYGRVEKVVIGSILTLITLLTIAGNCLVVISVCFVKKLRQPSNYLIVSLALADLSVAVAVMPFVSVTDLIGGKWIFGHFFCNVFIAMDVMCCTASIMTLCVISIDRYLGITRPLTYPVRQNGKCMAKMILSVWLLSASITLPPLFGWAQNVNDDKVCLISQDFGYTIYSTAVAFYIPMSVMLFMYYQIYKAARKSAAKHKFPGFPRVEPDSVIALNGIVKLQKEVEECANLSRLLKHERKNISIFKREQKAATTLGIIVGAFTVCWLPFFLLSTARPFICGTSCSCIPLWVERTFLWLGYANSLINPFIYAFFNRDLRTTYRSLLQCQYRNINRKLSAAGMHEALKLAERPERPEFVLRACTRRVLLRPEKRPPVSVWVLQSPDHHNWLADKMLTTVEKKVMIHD
compound,measurement,setting,value
O=C(O)c1ccc(OCCN2CCN(c3nsc4ccccc34)CC2)cc1,inhibition,[1],33.3%
O=C(O)CCc1ccc(OCCN2CCN(c3nsc4ccccc34)CC2)cc1,inhibition,[1],43.4%
same,concentration at 1 h,[2],114 ng/mL
same,concentration at 1 h,[3],< 7.8 ng/mL
Cl.Cl.N[C@@H](Cc1ccc(OCCN2CCN(c3nsc4ccccc34)CC2)cc1)C(=O)O,inhibition,[1],73.9%
same,concentration at 1 h,[2],165 ng/mL
same,concentration at 1 h,[3],< 7.8 ng/mL
O=C(O)Cc1ccc(OCCN2CCN(c3nsc4ccccc34)CC2)cc1,inhibition,[1],9.53%
N[C@H](Cc1ccc(OCCN2CCN(c3nsc4ccccc34)CC2)cc1)C(=O)O,inhibition,[1],53.4%
N[C@@H](Cc1ccc(OCCN2CCN(c3cccc(Cl)c3Cl)CC2)cc1)C(=O)O,inhibition,[1],43.2%
Cl.Cl.N[C@@H](Cc1ccc(OCC(O)CN2CCC(c3noc4cc(F)ccc34)CC2)cc1)C(=O)O (stereo partly drawn),inhibition,[1],90.8%
same,pIC50,[4],8.67
same,concentration at 1 h,[2],1230 ng/mL
same,concentration at 1 h,[3],< 7.8 ng/mL
Cl.Cl.N[C@@H](Cc1ccc(OCCCN2CCC(c3noc4cc(F)ccc34)CC2)cc1)C(=O)O,inhibition,[1],92%
same,pIC50,[4],9.77
same,concentration at 1 h,[2],901 ng/mL
same,concentration at 1 h,[3],< 7.8 ng/mL
same,remaining at 0.5 h,[5],> 99%
same,remaining at 0.5 h,[6],98.5%
same,remaining at 0.5 h,[7],> 99%
same,inhibition (INH),Cytochrome P450 1A2,4.3%
same,inhibition (INH),Cytochrome P450 2C9,1.8%
same,inhibition (INH),Cytochrome P450 2C19,< 1%
same,inhibition (INH),Cytochrome P450 2D6,31.9%
same,inhibition (INH),Cytochrome P450 3A4,< 1%
same,inhibition at 10 µM,hERG,30.9%
same,inhibition,[8],68%
same,inhibition,[9],98%
same,inhibition,[10],22%
same,inhibition,[11],50.4%
same,inhibition,[12],16%
same,inhibition,[13],4%
same,inhibition,[14],24%
same,Activity,Mus musculus [15],Active
same,Activity,Mus musculus [16],Active
same,Activity,Mus musculus [17],Active
same,Activity,Mus musculus [18],Active
same,Activity,Mus musculus [19],Active
same,Activity,Mus musculus [20],inactive
same,Activity,Mus musculus [21],Active
same,Activity,Mus musculus [22],Active
same,Activity,Mus musculus [23],Active
same,Activity,Mus musculus [24],Active
same,Activity,Mus musculus [25],Active
same,Activity,Mus musculus [26],Active
same,Activity,Mus musculus [27],Active
same,Activity,Mus musculus [28],Active
same,Activity,Mus musculus [29],Active
N[C@@H](Cc1ccc(OCCN2CCC(C(=O)c3ccc(F)cc3)CC2)cc1)C(=O)O,inhibition,[1],35.1%
N[C@@H](Cc1ccc(OCCCCN2CCC(c3noc4cc(F)ccc34)CC2)cc1)C(=O)O,inhibition,[1],91.4%
same,pIC50,[4],8.44
N[C@@H](Cc1ccc(OCCN2CCC(c3noc4cc(F)ccc34)CC2)cc1)C(=O)O,inhibition,[1],74.8%
